From US5006342A, “Resilient transdermal drug delivery device” (Cygnus Corporation, priority 1989, dated 1991) come the findings set out here.

Data set [1] is described as follows: wearing study, E2 plasma levels in postmenopausal female subjects. Format: in vivo, postmenopausal female subjects (human). The following applies: postmenopausal females.
A short description of data set [2]: E2 in vitro steady-state skin flux across human cadaver skin (diffusion cells, 32° C.). Format: in vitro ADME.
The nature of data set [3]: in vitro release of E2 (reciprocating dissolution apparatus, USP Test Dissolution Method V, 32° C.). The following applies: Example 1, 7-layer system, over 7 days. The protocol: The in vitro release of E2 from the 7-layer system was determined, using a reciprocating dissolution apparatus (USP Test Dissolution Method V) at 32° C., to be square-root-time-dependent over 7 days with a total cumulative release of 190 μg/cm^2 in 7 days (the flux was 14.66 μg/cm^2 /hr^1/2). The laminated composite was translucent and resilient, allowing the system to stretch with the stretching of skin when worn.

On to `C[C@]12CC[C@@H]3c4ccc(O)cc4CC[C@H]3[C@@H]1CC[C@@H]2O` [Example E2, estradiol], for which the constant plasma levels in data set [1] (Example 3, 30 cm^2 laminate, four day wearing, 5760 min) was ~32 pg/mL. Further, the “constant plasma concentration of E2” value in data set [1] (Example 5, 30 cm^2 laminate, 7 day wearing) is ~45 pg/mL. The concentration at 96 h in data set [1] (human, plasma, topical or ocular, Example 3, 20 cm^2 laminate, four day wearing, read-out: constant plasma levels) is ~0.025 ng/mL. For the same molecule, the concentration at 168 h in data set [1] (human, plasma, topical or ocular, Example 5, 20 cm^2 laminate, 7 day wearing, read-out: constant plasma concentration of E2) is ~0.03 ng/mL. Besides, the “In vitro skin flux” value in data set [2] (Example 2, 7-layer, 14% PGML in L1) is reported as -0.15 μg/cm^2 /hr; in data set [2] (Example 3, 7-layer, Medifilm 810, E2 2.0% in L1 and 5.5% in L2), “approximately 0.14 μg/cm^2 /hr”. Moreover, the E2 skin flux in data set [2] (Example 4, 5-layer laminate (prepared similarly to Example 1)) is -0.12 μg/cm^2 /hr; in data set [2] (Example 5, 5-layer laminate (prepared similarly to Example 2)), ~ 0.15 μg/cm^2 /hr. Besides, the “flux from the 5-layer device” value was -0.14 μg/cm^2 /hr in data set [2] (Examples 6 and 7, 5-layer device, Medifilm 810); -0.11 μg/cm^2 /hr in data set [2] (Examples 8 and 9, 5-layer device, Medifilm 910). Moreover, the “in vitro release flux of E2 (square-root-time)” value in data set [3] turned out to be 14.66 μg/cm^2 /hr^1/2. For the same molecule, the “time dependence of in vitro release of E2” value in data set [3] is on record as “square-root-time-dependent”.
